Data reported in the supplement of paper PMC10307832.

Tests used:
Assay in all cases: relative viability (nuclei count vs DMSO), 5 days (fraction); higher = more cells survive
Dovitinib + Pictilisib = compound: CN1CCN(c2ccc3nc(-c4c(N)c5c(F)cccc5[nH]c4=O)[nH]c3c2)CC1 [Dovitinib] + CS(=O)(=O)N1CCN(Cc2cc3nc(-c4cccc5[nH]ncc45)nc(N4CCOCC4)c3s2)CC1 [Pictilisib] (partner 1 µM)
In short: (§1)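 Cells from lung cancer lines were seeded into 1536-well plates and, one day later, dosed by pin tool. Treatments were either a single drug or a fixed dose of an anchor drug with five library-drug doses (not always all listed) in √10 steps. After 5 days, nuclei were stained in a one-step fixation (final 0.05% Triton X-100, 1% formaldehyde, 1 ug/ml Hoechst) and counted on 4× images, and relative viability is the treated-to-vehicle nuclei ratio, as the median of duplicate plates.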

Dovitinib + Alpelisib = compound: CN1CCN(c2ccc3nc(-c4c(N)c5c(F)cccc5[nH]c4=O)[nH]c3c2)CC1 [Dovitinib] + Cc1nc(NC(=O)N2CCC[C@H]2C(N)=O)sc1-c1ccnc(C(C)(C)C(F)(F)F)c1 [Alpelisib] (partner 2 µM)
In short: as §1

Dovitinib + Phenformin = compound: CN1CCN(c2ccc3nc(-c4c(N)c5c(F)cccc5[nH]c4=O)[nH]c3c2)CC1 [Dovitinib] + N=C(N)NC(=N)NCCc1ccccc1 [Phenformin] (partner 250 µM)
In short: as §1

Dovitinib + AZD7762 = compound: CN1CCN(c2ccc3nc(-c4c(N)c5c(F)cccc5[nH]c4=O)[nH]c3c2)CC1 [Dovitinib] + NC(=O)Nc1cc(-c2cccc(F)c2)sc1C(=O)N[C@H]1CCCNC1 [AZD7762] (partner 0.2 µM)
In short: as §1

Cell Line	relative viability (Dovitinib + Pictilisib; first compound 0.02 µM)	relative viability (Dovitinib + Pictilisib; first compound 0.06325 µM)	relative viability (Dovitinib + Pictilisib; first compound 0.2 µM)	relative viability (Dovitinib + Pictilisib; first compound 0.6325 µM)	relative viability (Dovitinib + Pictilisib; first compound 2 µM)	relative viability (Dovitinib + Alpelisib; first compound 0.02 µM)	relative viability (Dovitinib + Alpelisib; first compound 0.06325 µM)	relative viability (Dovitinib + Alpelisib; first compound 0.2 µM)	relative viability (Dovitinib + Alpelisib; first compound 0.6325 µM)	relative viability (Dovitinib + Alpelisib; first compound 2 µM)	relative viability (Dovitinib + Phenformin; first compound 0.02 µM)	relative viability (Dovitinib + Phenformin; first compound 0.06325 µM)	relative viability (Dovitinib + Phenformin; first compound 0.2 µM)	relative viability (Dovitinib + Phenformin; first compound 0.6325 µM)	relative viability (Dovitinib + Phenformin; first compound 2 µM)	relative viability (Dovitinib + AZD7762; first compound 0.02 µM)	relative viability (Dovitinib + AZD7762; first compound 0.06325 µM)	relative viability (Dovitinib + AZD7762; first compound 0.2 µM)	relative viability (Dovitinib + AZD7762; first compound 0.6325 µM)	relative viability (Dovitinib + AZD7762; first compound 2 µM)
NCI-H1755	0.494	0.399	0.465	0.452	0.46	0.951	0.916	0.923	0.903	0.878	0.625	0.601	0.617	0.591	0.657	0.427	0.461	0.484	0.593	0.436
NCI-H1792	0.315	0.205	0.294	0.288	0.291	0.674	0.617	0.745	0.725	0.676	0.384	0.264	0.482	0.357	0.322	0.559	0.761	0.676	0.796	0.559
NCI-H1793	0.395	0.282	0.419	0.375	0.31	0.928	0.601	0.88	0.831	0.623	0.41	0.326	0.368	0.283	0.515	0.453	0.316	0.505	0.306	0.53
NCI-H1915	0.877	0.893	0.912	0.891	0.961	0.992	1.04	1.06	0.983	1.04	0.361	0.38	0.365	0.358	0.379	0.609	0.708	0.705	0.614	0.693
NCI-H1944	0.325	0.332	0.335	0.33	0.36	0.822	0.846	0.809	0.777	0.858	0.216	0.198	0.244	0.202	0.217	0.564	0.788	0.531	0.523	0.475
NCI-H1975	0.299	0.271	0.325	0.324	0.274	0.625	0.685	0.603	0.604	0.547	0.427	0.415	0.411	0.409	0.423	0.708	0.577	0.728	0.738	0.653
NCI-H1993	0.762	0.886	0.825	0.819	0.787	0.599	0.683	0.642	0.71	0.734	0.483	0.516	0.496	0.499	0.505	1.01	0.724	0.887	0.985	0.849
NCI-H2085	0.553	0.465	0.443	0.502	0.451	1.05	0.987	0.88	0.936	1.03	0.69	0.846	0.732	0.771	0.717	1.07	1.13	1.04	0.998	1.04
NCI-H2087	1.05	0.907	0.845	0.907	0.892	1.35	1.31	1.02	0.989	1.01	0.415	0.437	0.516	0.53	0.467	1.35	1.38	1.27	1.29	1.31
NCI-H2126	0.476	0.462	0.463	0.559	0.504	0.761	0.72	0.716	0.769	0.695	0.524	0.504	0.582	0.536	0.581	0.982	1.04	1.03	1.04	1
NCI-H2170	0.268	0.337	0.318	0.265	0.322	0.672	0.807	0.889	0.77	0.83	0.357	0.43	0.448	0.338	0.452	0.773	1.02	0.928	0.857	0.883
NCI-H2347	0.888	0.676	0.947	0.895	0.677	1.11	0.988	1.08	1.09	1.09	0.294	0.381	0.378	0.43	0.376	0.701	0.606	0.864	0.774	0.754
NCI-H2405	0.431	0.372	0.458	0.456	0.408	0.819	0.744	0.791	0.77	0.965	0.389	0.345	0.448	0.331	0.446	0.693	0.781	0.736	0.696	0.78
NCI-H3122	0.793	0.588	0.47	0.603	0.66	0.703	0.681	0.8	0.82	0.839	0.34	0.362	0.414	0.33	0.385	0.926	1.02	0.995	0.925	0.93
PC-3 [JPC-3]	0.742	0.75	0.818	0.897	0.877	1.03	1.01	1.02	1.09	0.909	0.486	0.494	0.467	0.474	0.474	0.84	0.855	0.921	0.866	0.827
PC-14	0.632	0.72	0.685	0.691	0.543	0.805	1.03	0.966	0.946	0.883	0.657	0.563	0.553	0.542	0.765	0.309	0.343	0.385	0.351	0.357
RERF-LC-KJ	0.556	0.643	0.472	0.428	0.49	0.794	0.825	0.852	0.822	0.87	0.412	0.417	0.447	0.42	0.384	1.05	0.916	1.03	1.02	0.868
